These results are taken from publication PMC9817100, “Preclinical profiles of SKB264, a novel anti-TROP2 antibody conjugated to topoisomerase inhibitor, demonstrated promising antitumor efficacy compared to IMMU-132” (Frontiers in Oncology, 2022).

One may read the EC50 as the concentration giving half of the maximal effect.

Series [1] relates to TROP2-positive cells HCC1806. Description: cell-level binding to HCC1806 by FACS. The settings on record: read-out: Antibody EC50 determination on HCC1806. Details: species or system human. The method, then: (§1) To examine whether the anti-TROP2 mAb plays a targeting role via specifically recognizing the highly expressed TROP2 on the surface of tumor cells, the following experiments were conducted ([17]).
(§2) Figure 2 In vitro activities of SKB264. (A) Binding to human TROP2 estimated by ELISA (duplicates, mean ± SEM). (B) SKB264 binding to HCC1806 and NCI-N87 estimated by FACS. (C) Internalization of SKB264 or SKB264 mAb in HCC1806 and NCI-N87 cells. (D) In vitro cell growth inhibitory activity (triplicates, mean ± SEM) in HCC1806, NCI-N87, BxPC-3, Calu-3, NCI-H23 (TROP2+), and NCI-H23 (parental) cells.

Another series concerns the target T1, mouse TROP2 protein (Mus musculus, UniProt Q8BGV3).
T1 sequence (Q8BGV3 25-317): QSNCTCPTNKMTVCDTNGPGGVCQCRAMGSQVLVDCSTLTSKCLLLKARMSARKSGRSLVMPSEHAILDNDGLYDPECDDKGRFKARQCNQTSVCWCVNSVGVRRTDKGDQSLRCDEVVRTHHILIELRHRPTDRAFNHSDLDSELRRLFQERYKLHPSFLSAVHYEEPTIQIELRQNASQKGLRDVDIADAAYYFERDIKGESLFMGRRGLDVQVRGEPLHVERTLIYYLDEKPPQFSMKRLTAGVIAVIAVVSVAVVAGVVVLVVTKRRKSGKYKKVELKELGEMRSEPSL
Description: ELISA binding to mouse TROP2. The method, then: (§3) An enzyme-linked immunosorbent assay (ELISA) was used to evaluate the binding and dynamics affinity. Human TROP2 protein (1 μg/ml) (Sino Biological Inc, Wayne, PA) was coated on a 96-well plate overnight at 4°C. The plate was then blocked by Super block reagent (ScyTek Inc. Logan UT) at room temperature for 1 h. Diluted SKB264, SKB264 mAb, or isotype control (human IgG1 antibody) was added for incubation at 37°C for 1 h. After washing, the diluted (1:10,000) goat anti-human IgG Fc-horseradish peroxidase (HRP) (Abcam, Waltham, MA) was added for further incubation for 45 min at 37°C. Finally, TMB solution was added for absorbance measurement at 450 nm using a SpectraMax Plus384 Microplate reader (Molecular Devices, USA).
(§4) Firstly, the affinities of SKB264 and SKB264 mAb to TROP2 of different species were evaluated by ELISA. […] Therefore, we performed the pharmacokinetic experiments in cynomolgus monkeys.

For a further series, the target named is rat TROP2 protein. Description: ELISA binding to rat TROP2. The procedure:
as §3, §4

The test system of series [2] is TROP2-positive cells NCI-N87. Description: cell-level binding to NCI-N87 by FACS. The settings on record: read-out: Antibody EC50 determination on NCI-N87. Further details: species or system human. The method, then:
as §1, §2
A general note: A flow cytometer gives signals particle by particle.

In a further series the target is T2, Human TROP2 protein (Homo sapiens, UniProt P09758).
T2 sequence (P09758 27-323): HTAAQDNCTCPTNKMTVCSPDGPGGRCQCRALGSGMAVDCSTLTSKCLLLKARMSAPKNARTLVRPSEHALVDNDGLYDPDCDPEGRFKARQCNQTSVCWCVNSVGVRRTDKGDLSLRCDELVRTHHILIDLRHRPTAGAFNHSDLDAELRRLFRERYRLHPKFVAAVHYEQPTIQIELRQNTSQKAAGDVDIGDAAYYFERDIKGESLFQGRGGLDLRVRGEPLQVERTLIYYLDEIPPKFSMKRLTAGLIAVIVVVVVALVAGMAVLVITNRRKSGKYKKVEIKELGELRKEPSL
Description: ELISA binding to human TROP2 protein. Details: purchased Sino Biological Inc, Wayne, PA. The method, then: as §3
(An ELISA detects its analyte on a solid surface through an enzyme-linked reagent.)

In another series the target is monkey TROP2. Description: ELISA binding to monkey TROP2. The procedure: as §3, §4
Another series relates to HCC1806 cells. The series is described as follows: endocytosis (internalization) experiment in HCC1806. The class given is cell-based, human. The procedure:
as §1, §2

In another series the test system is NCI-N87 cells. Description: endocytosis (internalization) experiment in NCI-N87. The class given is cell-based, human. The procedure: as §1, §2
The next series deals with T3, DNA topoisomerase I (Homo sapiens, UniProt P11387).
T3 sequence (P11387 1-765): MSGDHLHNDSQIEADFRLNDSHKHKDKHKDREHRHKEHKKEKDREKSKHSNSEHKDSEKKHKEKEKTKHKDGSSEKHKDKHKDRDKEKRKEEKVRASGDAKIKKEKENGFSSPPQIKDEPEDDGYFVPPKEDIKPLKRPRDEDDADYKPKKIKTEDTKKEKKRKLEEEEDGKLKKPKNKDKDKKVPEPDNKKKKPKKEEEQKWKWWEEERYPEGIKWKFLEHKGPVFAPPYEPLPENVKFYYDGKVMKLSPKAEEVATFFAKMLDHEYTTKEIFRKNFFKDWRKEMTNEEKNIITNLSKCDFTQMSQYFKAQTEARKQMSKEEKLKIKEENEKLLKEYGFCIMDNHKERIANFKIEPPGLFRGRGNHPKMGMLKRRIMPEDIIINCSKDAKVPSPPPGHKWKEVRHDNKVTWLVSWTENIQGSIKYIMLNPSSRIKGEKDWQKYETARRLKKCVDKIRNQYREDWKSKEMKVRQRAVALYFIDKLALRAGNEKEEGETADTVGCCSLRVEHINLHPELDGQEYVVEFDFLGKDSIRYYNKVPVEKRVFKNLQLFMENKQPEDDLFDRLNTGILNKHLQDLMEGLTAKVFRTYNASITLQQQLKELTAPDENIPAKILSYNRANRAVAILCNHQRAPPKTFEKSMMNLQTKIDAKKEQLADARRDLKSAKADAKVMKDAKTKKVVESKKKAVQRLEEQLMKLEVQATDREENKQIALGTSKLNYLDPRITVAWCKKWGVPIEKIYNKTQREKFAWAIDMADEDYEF
Description: topoisomerase I-mediated DNA relaxation assay (cell-free). The class given is biochemical. The settings on record: read-out: DNA topoisomerase I inhibition (IC50). From the text: SKB264 is a TROP2-targeting ADC, which consists of a recombinant humanized anti-TROP2 antibody and a topoisomerase I inhibitor derived from Belotecan (KL610023), integrated together via a sulfonyl pyrimidine-CL2A-carbonate linker. The payload is conjugated with the antibody through irreversible nucleophilic aromatic substitution by tris (2-carboxyethyl) phosphine hydrochloride (TCEP HCl), a reducing agent that can reduce the interchain disulfide bounds. The drug-to-antibody ratio (DAR) of SKB264 was approximately 7.4, which was determined by the reversed-phase chromatography (RPC), and might be the theoretical maximum drug loading number for conventional interchain cysteine conjugation ( Figure 1B ). SKB264 was designed to release payload KL610023 after internalization by TROP2-expressing tumor cells. The inhibitory effect of KL610023 on topoisomerase I was almost similar to that of SN-38, as measured by a topoisomerase I-mediated DNA relaxation assay ( Figure 1C ).
Figure 1 Structure and characterization of SKB264. […] (B) The distribution of the conjugated drug determined by the reverse-phase chromatography analysis (L-0: Unconjugated light chain, L-1: Light chain conjugated with one payload, H-0: Unconjugated heavy chain, H-1: Heavy chain conjugated with one payload, H-2: Heavy chain conjugated with two payloads, H-3: Heavy chain conjugated with three payloads). […]

The test system of another series is HCC1806 (TROP2+). Description: cytotoxic assay (CellTiter-Glo, 72 h) HCC1806. The class given is cell-based, human. The settings on record: HCC1806, payload comparison, Figure 7C, duplicates; read-out: IC50 inhibition of proliferation of HCC1806 cells. The method, then:
Tumor cells were seeded on 96-well plates at the following concentrations: HCC1806 (3,000 cells per well), NCI-N87 (5,000 cells per well), BxPC-3 (2,000 cells per well), Calu-3 (8,000 cells per well), NCI-H23 (TROP2+, 3,000 cells per well), and NCI-H23 (parental, 3,000 cells per well). After overnight incubation, the diluted testing items were added respectively. After 72 h, cell viability was evaluated using a CellTiter-Glo Luminescent Cell Viability Assay (Promega Corp. Madison, WI), following the manufacturer’s instruction.

In the next series the test system is HCC1806 xenograft. The series is described as follows: PK-PD study, single dose, HCC1806 xenograft. The settings on record: payload after single i.v. 3 mg/kg SKB264 (KL610023) or IMMU-132 (SN-38), HCC1806 tumor-bearing mice, mean, n = 5. The class given is in vivo, BALB/c nude mice. The procedure:
Phoenix WinNonlin 8.1 was used to calculate the PK parameters in the non-compartment model, including t 1/2, T max, C max, AUC0-t, and AUC0-∞. […] The half maximal effective concentration (EC50) and half maximal inhibitory concentration (IC50) were calculated using a nonlinear regression model with sigmoidal fitting. The in vitro antitumor activities of drugs were evaluated by a two-tailed paired t-test.

Some results are limits rather than exact numbers.

Turning to “SKB264 mAb: humanized anti-TROP2 mAb with the same amino acid sequence as the antibody of IMMU-132”, the EC50 in series [1] stood at 16.1 nM; in series [2], 8.09 nM. In addition, the “EC50 binding to mouse TROP2 protein” value with mouse TROP2 protein is on record as > 5,000 ng/ml. Moreover, the “EC50 binding to rat TROP2 protein” value at rat TROP2 protein is recorded as > 5,000 ng/ml. Also, the “EC50 determination on Human TROP2” value with Human TROP2 protein is 2.731 ng/mL. In addition, the “EC50 of the affinity with monkey TROP2” value at monkey TROP2 turned out to be 3.399 ng/mL. Besides, the percentage of endocytosis result in the series with HCC1806 cells and with NCI-N87 cells was “increased over time” each time.
Regarding `CCc1c2c(nc3ccc(O)cc13)-c1cc3c(c(=O)n1C2)COC(=O)[C@]3(O)CC` [SN-38], the IC50 at DNA topoisomerase I turned out to be 1100 nM. Besides, the IC50 in the series with HCC1806 (TROP2+) is 2.61 nM. In addition, in the series on HCC1806 xenograft (plasma), the “AUC0-∞ of payload” value came out at 22.17 ng·h/mL, the AUClast of payload is 19.26 ng·h/mL, the “C max of payload” value stood at 1.32 ng/mL and the “t 1/2 of payload” value is reported as 15.5 h. In the series with HCC1806 xenograft (tumor), the “AUC0-∞ of payload” value was found to be 448 ng·h/g, the AUClast of payload was 410 ng·h/g, the “C max of payload” value amounted to 4.5 ng/g and the “T max of payload” value is 24 h. For the same molecule, in the series on HCC1806 xenograft (tumor), the “t 1/2 of payload” value came out at 57.4 h.
